Reference: ChEMBL document CHEMBL2177032, “Shooting for selective druglike G-quadruplex binders: evidence for telomeric DNA damage and tumor cell death” (2012)
Values belong to the compound of their own block, whether it stands above or below them. Calls of active or inactive are those of the source. The calls are words filed in the database; no cut-off is given here.

Legend:
[1] = system: Nucleic Acid; experiment: Binding affinity to d(TGGGGT) quadruplex DNA by NMR analysis; assay type: nucleic-acid assay
[2] = system: Nucleic Acid; experiment: Binding affinity to d(TGGGGT) quadruplex DNA by chemical shift perturbation method; assay type: nucleic-acid assay
[3] = system: HeLa; experiment: Cell cycle arrest in human HeLa cells assessed as accumulation at G0-G1 phase at 3.5 uM after 96 hrs by flow cytometry (reference value: 67%); assay type: functional
[4] = system: HeLa; experiment: Cell cycle arrest in human HeLa cells assessed as accumulation at G0-G1 phase at 3.5 uM after 24 hrs by flow cytometry (reference value: 57%); assay type: functional
[5] = system: BJ; experiment: Induction of DNA damage in human BJ cells expressing hTERT and SV40 early region assessed as damaged foci colocalized with TRF1 at 0.1 to 0.5 uM after 24 hrs by deconvolution microscopy analysis; assay type: functional, cell-based
[6] = system: HeLa; experiment: Cell cycle arrest in human HeLa cells assessed as accumulation at S phase at 3.5 uM after 72 hrs by flow cytometry (reference value: 22%); assay type: functional
[7] = system: BJ; experiment: Induction of DNA damage in human BJ cells expressing hTERT and SV40 early region at 0.5 uM after 24 hrs by immunofluorescence analysis; assay type: functional, cell-based
[8] = system: HeLa; experiment: Cell cycle arrest in human HeLa cells assessed as accumulation at sub-G1 phase at 3.5 uM after 96 hrs by flow cytometry (reference value: 6%); assay type: functional
[9] = system: HeLa; experiment: Cell cycle arrest in human HeLa cells assessed as accumulation at sub-G1 phase at 3.5 uM after 120 hrs by flow cytometry (reference value: 14%); assay type: functional
[10] = system: HeLa; experiment: Cell cycle arrest in human HeLa cells assessed as accumulation at G0-G1 phase at 3.5 uM after 120 hrs by flow cytometry (reference value: 51%); assay type: functional
[11] = system: HeLa; experiment: Cell cycle arrest in human HeLa cells assessed as accumulation at S phase at 3.5 uM after 24 hrs by flow cytometry (reference value: 27%); assay type: functional
[12] = system: HeLa; experiment: Cell cycle arrest in human HeLa cells assessed as accumulation at G2/M phase at 3.5 uM after 24 hrs by flow cytometry (reference value: 16%); assay type: functional
[13] = system: HeLa; experiment: Cell cycle arrest in human HeLa cells assessed as accumulation at sub-G1 phase at 3.5 uM after 72 hrs by flow cytometry (reference value: 5%); assay type: functional
[14] = system: HeLa; experiment: Cell cycle arrest in human HeLa cells assessed as accumulation at S phase at 3.5 uM after 120 hrs by flow cytometry (reference value: 31%); assay type: functional
[15] = system: HeLa; experiment: Cell cycle arrest in human HeLa cells assessed as accumulation at G2/M phase at 3.5 uM after 120 hrs by flow cytometry (reference value: 18%); assay type: functional
[16] = system: HeLa; experiment: Cell cycle arrest in human HeLa cells assessed as accumulation at G0-G1 phase at 3.5 uM after 72 hrs by flow cytometry (reference value: 64%); assay type: functional
[17] = system: HeLa; experiment: Cell cycle arrest in human HeLa cells assessed as accumulation at sub-G1 phase at 3.5 uM after 24 hrs by flow cytometry (reference value: 3%); assay type: functional
[18] = system: HeLa; experiment: Cell cycle arrest in human HeLa cells assessed as accumulation at G2/M phase at 3.5 uM after 72 hrs by flow cytometry (reference value: 14%); assay type: functional
[19] = system: HeLa; experiment: Induction of apoptosis in human HeLa cells at 3.5 uM after 96 hrs using Annexin V-FITC vs PI staining by flow cytometry (reference value: 5.3%); assay type: functional
[20] = system: HeLa; experiment: Cell cycle arrest in human HeLa cells assessed as accumulation at S phase at 3.5 uM after 96 hrs by flow cytometry (reference value: 22%); assay type: functional
[21] = system: HeLa; experiment: Induction of apoptosis in human HeLa cells at 3.5 uM after 72 hrs using Annexin V-FITC vs PI staining by flow cytometry (reference value: 3.9%); assay type: functional
[22] = system: HeLa; experiment: Induction of apoptosis in human HeLa cells at 3.5 uM after 120 hrs using Annexin V-FITC vs PI staining by flow cytometry (reference value: 8.3%); assay type: functional
[23] = system: BJ; experiment: Induction of telomere damage in human BJ cells expressing hTERT and SV40 early region assessed as gammaH2AX/TRF1 colocalizations at 0.1 to 0.5 uM after 24 hrs by immunofluorescence analysis; assay type: functional
[24] = system: HeLa; experiment: Induction of apoptosis in human HeLa cells at 3.5 uM after 24 hrs using Annexin V-FITC vs PI staining by flow cytometry (reference value: 3.8%); assay type: functional
[25] = system: HeLa; experiment: Cytotoxicity against human HeLa cells assessed as decrease in cell survival; assay type: functional, cell-based
[26] = system: Nucleic Acid; experiment: Binding affinity to d(TGGGGT) quadruplex DNA at compound/DNA ratio 4:1 by isothermal titration calorimetry analysis; assay type: nucleic-acid assay
[27] = system: HeLa; experiment: Cell cycle arrest in human HeLa cells assessed as accumulation at G2/M phase at 3.5 uM after 96 hrs by flow cytometry (reference value: 11%); assay type: functional
[28] = system: Nucleic Acid; experiment: Displacement of distamycin-A from d(TGGGGT) quadruplex DNA at compound/DNA ratio 4:1 by isothermal titration calorimetry analysis; assay type: nucleic-acid assay

Activity [1]: inactive
Compound: CCc1cc2c(=O)c(-c3nc4ccccc4s3)coc2c(CN2CCCC2)c1O

Activity [1]: inactive
Compound: Cc1oc2c(CN3CCCC3)c(O)ccc2c(=O)c1-c1nc2ccccc2s1

Activity [2]: Active
Compound: CN1CCN(Cc2c(O)ccc3cc(-c4nc5ccccc5s4)c(=O)oc23)CC1

Activity [1]: Active | Activity [26]: Active
Compound: CC1CCCC(C)N1Cc1c(O)ccc2c(=O)c(-c3nc4ccccc4s3)c(N)oc12 (stereo unspecified)
Activity [3]: 40% | Activity [4]: 52% | Activity [5]: Active | Activity [6]: 23% | Activity [7]: Active | Activity [8]: 19% | Activity [9]: 38% | Activity [10]: 43% | Activity [11]: 28% | Activity [12]: 20% | Activity [13]: 12% | Activity [14]: 26% | Activity [15]: 31% | Activity [16]: 40% | Activity [17]: 5% | Activity [18]: 37% | Activity [19]: 13.9% | Activity [20]: 28% | Activity [21]: 7.1% | Activity [22]: 30.6% | Activity [23]: 50% | Activity [24]: 4.6% | inhibition [25]: Dose-dependent effect | Activity [27]: 32%

Activity [1]: inactive
Compound: O=c1c(-c2nc3ccccc3s2)coc2cc(O)ccc12

Compound: Cn1cc(NC(=O)c2cc(NC(=O)c3cc(NC=O)cn3C)cn2C)cc1C(=O)NCCC(=N)N
Activity [5]: Active | Activity [7]: Active

Activity [1]: inactive
Compound: CC1(C)C[C@H]2CN(Cc3c(O)ccc4c(=O)c(-c5nc6ccccc6s5)c(N)oc34)[C@](C)(C2)C1

Activity [1]: Active
Compound: CCC1CCCCN1Cc1c(O)ccc2c(=O)c(-c3nc4ccccc4s3)coc12 (stereo unspecified)

Activity [1]: inactive
Compound: CCc1cc2c(=O)c(-c3nc4ccccc4s3)coc2c(CN(CC)CC)c1O

Activity [1]: Active
Compound: O=c1c(-c2nc3ccccc3s2)coc2c(CN3CCCCC3)c(O)ccc12

Activity [2]: Active
Compound: O=c1oc2c(CN(CCO)CCO)c(O)ccc2cc1-c1nc2ccccc2s1

Activity [1]: Active
Compound: CN(C)Cc1c(O)ccc2c(=O)c(-c3nc4ccccc4s3)coc12

Activity [2]: Active
Compound: CCN1CCN(Cc2c(O)ccc3cc(-c4nc5ccccc5s4)c(=O)oc23)CC1

Activity [1]: Active | Activity [26]: Active
Compound: CCN(CC)Cc1c(O)ccc2c(=O)c(-c3nc4ccccc4s3)coc12
Activity [5]: Active | Activity [7]: Active | Activity [23]: 50%

Activity [2]: inactive
Compound: O=c1oc2c(CN3CCN(c4ccccc4)CC3)c(O)ccc2cc1-c1nc2ccccc2s1

Activity [1]: Active
Compound: CC1CCCN(Cc2c(O)ccc3c(=O)c(-c4nc5ccccc5s4)coc23)C1 (stereo unspecified)

Activity [1]: inactive
Compound: Cc1oc2c(CN(C)C)c(O)ccc2c(=O)c1-c1nc2ccccc2s1

Activity [1]: Active
Compound: O=c1c(-c2nc3ccccc3s2)coc2c(CN3CCOCC3)c(O)ccc12

Activity [1]: Active
Compound: CC1CCCN(Cc2c(O)ccc3c(O)c(-c4nc5ccccc5s4)c(=N)oc23)C1 (stereo unspecified)

Activity [2]: inactive
Compound: CCOC(=O)N1CCN(Cc2c(O)ccc3cc(-c4nc5ccccc5s4)c(=O)oc23)CC1

Activity [1]: Active | Activity [26]: Active
Compound: Nc1oc2c(CN3CCCCCC3)c(O)ccc2c(=O)c1-c1nc2ccccc2s1
Activity [5]: Active | Activity [7]: Active | Activity [23]: 50%

Activity [1]: Active
Compound: O=c1c(-c2nc3ccccc3s2)coc2c(CN3CCCC3)c(O)ccc12

Activity [1]: Active
Compound: CC1CCN(Cc2c(O)ccc3c(O)c(-c4nc5ccccc5s4)c(=N)oc23)CC1

Activity [28]: Active | Activity [26]: Active
Compound: O=c1oc2c(CN3CCN(CCO)CC3)c(O)ccc2cc1-c1nc2ccccc2s1

Activity [1]: Active
Compound: CC1CCCCN1Cc1c(O)ccc2c(=O)c(-c3nc4ccccc4s3)coc12 (stereo unspecified)

Activity [1]: Active
Compound: CC1CCN(Cc2c(O)ccc3c(=O)c(-c4nc5ccccc5s4)coc23)CC1
